Source: US20260240810A1, “COMPOSITIONS AND METHODS FOR REDUCING ADVERSE SIDE EFFECTS IN CANCER TREATMENT” (priority 2022, published 2026)

Legend:
[1] = system: CD2F1 mice, lethal total body irradiation; assay: Survival after lethal total body irradiation; format: in vivo
Experimental: Mice were treated with vehicle or 10 mg/kg RRx-001 intraperitoneally 24 hours prior to irradiation (9.35 Gy delivered at 0.6 Gy/min).
CD2F1 mice were treated with lethal dose 70/30 whole body irradiation dose of 9.35 Gy at 0.6 Gy/min using a ^60Co source. Twenty-four hours prior to irradiation, all mice were intraperitoneally injected with either 10 mg/kg RRx-001 or the vehicle control (5% dimethyl sulfoxide in sterile water).

[2] = PREVLAR trial: adverse events; format: in vivo, human
From the text: Of potential significance for OM, decreased rates of several pathognomonic toxicities were seen (see Table 4).
• CTCAEv.4 are a set of criteria for the standardized classification of AEs of drugs used in cancer therapy.

[3] = 10 mg/kg 24 hours prior to lethal total body irradiation, vs vehicle control
[4] = Arm 1: RRx-001 Pre-treatment + SOC Chemoradiation (N = 12)
[5] = Arm 1: RRx-001 pretreatment + SOC chemoradiation
[6] = Arm 2: RRx-001 Pre-treatment + 2 Concurrent Doses + SOC Chemoradiation (N = 11)
[7] = Arm 2: RRx-001 pretreatment + 2 concurrent doses + SOC chemoradiation
[8] = Arm 3: RRx-001 Pre-treatment + 6 Concurrent Doses + SOC Chemoradiation (N = 13)
[9] = Arm 3: RRx-001 pretreatment + 6 concurrent doses + SOC chemoradiation

O=C(CBr)N1CC([N+](=O)[O-])([N+](=O)[O-])C1 [RRx-001, 2-bromo-1-(3,3-dinitroazetidin-1-yl) ethan-1-one]
67%: Survival over 30 days post-exposure ([1]; 10 mg/kg intraperitoneally 24 hours prior to 9.35 Gy at 0.6 Gy/min)
0%: Related anemia ([2]; Arm 1) | neutrophil count decrease ([2]; Arm 1) | related oral dysesthesia ([2]; Arm 1) | Oral pain ([2]; Arm 1, p=0.0095 vs control) | related constipation ([2]; Arm 1, p=0.0095 vs control) | Related anemia ([2]; Arm 2) | neutrophil count decrease ([2]; Arm 2) | related constipation ([2]; Arm 2) | related oral dysesthesia ([2]; Arm 2)
15.4%: SAE frequency: Decreased appetite [2, 9] | SAE frequency: Gastrointestinal tube insertion [2, 9]
18.2%: radiation-induced skin injury ([2]; Arm 2) | SAE frequency: Acute kidney injury [2, 7]
9.1%: Oral pain ([2]; Arm 2) | SAE frequency: Alanine aminotransferase increased [2, 7] | SAE frequency: Anemia [2, 7] | SAE frequency: Blood creatinine increased [2, 7] | SAE frequency: Candida infection [2, 7] | SAE frequency: Colitis [2, 7] | SAE frequency: Deafness [2, 7] | SAE frequency: Decreased appetite [2, 7] | SAE frequency: Device related thrombosis [2, 7] | SAE frequency: Dysphagia [2, 7] | SAE frequency: Flank pain [2, 7] | SAE frequency: Hypokalemia [2, 7] | SAE frequency: Hypophosphatasemia [2, 7] | SAE frequency: Laryngeal inflammation [2, 7] | SAE frequency: Leukocytosis [2, 7] | SAE frequency: Nausea [2, 7] | SAE frequency: Oral pain [2, 7] | SAE frequency: Oropharyngeal pain [2, 7] | SAE frequency: Stomatitis [2, 7] | SAE frequency: Sudden death [2, 7]
33.3%: SAE frequency: Lymphocyte count decreased [2, 5]
discomfort during infusion: toxicity attributed to RRx-001 ([2]; PREVLAR)
7 (53.8): reported adverse events (CTCAEv.4): Dysgeusia [2, 8]
7.7%: SAE frequency: Complication associated with device [2, 9] | SAE frequency: Dry Mouth [2, 9] | SAE frequency: Embolism [2, 9] | SAE frequency: Gastric Perforation [2, 9] | SAE frequency: Hypocalcemia [2, 9] | SAE frequency: Hypokalemia [2, 9] | SAE frequency: Hypophosphatasemia [2, 9] | SAE frequency: Hypotension [2, 9] | SAE frequency: Lung infection [2, 9] | SAE frequency: Nausea [2, 9] | SAE frequency: Oral dysaesthesia [2, 9] | SAE frequency: Oral dysesthesia [2, 9] | SAE frequency: Oral pain [2, 9] | SAE frequency: Oropharyngeal pain [2, 9] | SAE frequency: Salivary duct inflammation [2, 9] | SAE frequency: Stomatitis [2, 9] | SAE frequency: Swelling face [2, 9] | SAE frequency: Tumor pain [2, 9] | SAE frequency: Vomiting [2, 9] | SAE frequency: Weight decreased [2, 9]
1 (8.3): reported adverse events (CTCAEv.4): Oral candidiasis [2, 4] | reported adverse events (CTCAEv.4): Vomiting [2, 4]
27.3%: SAE frequency: Neutrophil count decreased [2, 7]
30.8%: SAE frequency: Dysphagia [2, 9] | SAE frequency: Neutrophil count decreased [2, 9] | SAE frequency: White blood cell count decreased [2, 9]
1 (7.7): reported adverse events (CTCAEv.4): Neutrophil count decreased [2, 8] | reported adverse events (CTCAEv.4): Oral candidiasis [2, 8] | reported adverse events (CTCAEv.4): Salivary duct inflammation [2, 8] | reported adverse events (CTCAEv.4): White blood cell count decreased [2, 8]
4 (30.8): reported adverse events (CTCAEv.4): Anemia [2, 8] | reported adverse events (CTCAEv.4): Decreased appetite [2, 8] | reported adverse events (CTCAEv.4): Dry mouth [2, 8] | reported adverse events (CTCAEv.4): Oral pain [2, 8] | reported adverse events (CTCAEv.4): Radiation skin injury [2, 8]
none: radiation-induced skin injury ([2]; Arm 1, p=0.0007 vs control) | incidence of salivary duct inflammation ([2]; Arms 1 and 2, vs control 30%, N.S.) | incidence of dry mouth ([2]; Arms 1 and 2, vs control 60%, p=0.0028) | incidence of dysphagia ([2]; Arms 1 and 2, vs control 70%, p=0.0007) | weight loss ([2]; RRx-001-treated patients vs control 50%, p=0.0095)
33.4%: increase in survival [1, 3]
36.4%: SAE frequency: White blood cell count decreased [2, 7]
3 (23.1): reported adverse events (CTCAEv.4): Candida infection [2, 8] | reported adverse events (CTCAEv.4): Platelet count decreased [2, 8] | reported adverse events (CTCAEv.4): Vomiting [2, 8]
did not statistically impact: impact on marrow-related AEs (anemia, neutropenia), renal function or the incidence of candidiasis ([2]; RRx-001 treatment vs control)
2 (15.4): reported adverse events (CTCAEv.4): Dysphagia [2, 8] | reported adverse events (CTCAEv.4): Weight decreased [2, 8]
~33.4%: reduction in the 30-day death risk ([1]; 1 dose of 10 mg/kg 24 hours prior to 9.35 Gy, vs vehicle control)
1%: related vomiting ([2]; Arm 1) | related vomiting ([2]; Arm 2)
1 (9.1): reported adverse events (CTCAEv.4): Candida infection [2, 6] | reported adverse events (CTCAEv.4): Oral pain [2, 6] | reported adverse events (CTCAEv.4): Vomiting [2, 6]
72.7%: SAE frequency: Lymphocyte count decreased [2, 7]
0 (0): reported adverse events (CTCAEv.4): Anemia [2, 4] | reported adverse events (CTCAEv.4): Blood creatinine increased [2, 4] | reported adverse events (CTCAEv.4): Blood urea increased [2, 4] | reported adverse events (CTCAEv.4): Candida infection [2, 4] | reported adverse events (CTCAEv.4): Constipation [2, 4] | reported adverse events (CTCAEv.4): Decreased appetite [2, 4] | reported adverse events (CTCAEv.4): Dermatitis [2, 4] | reported adverse events (CTCAEv.4): Dry mouth [2, 4] | reported adverse events (CTCAEv.4): Dysgeusia [2, 4] | reported adverse events (CTCAEv.4): Dysphagia [2, 4] | reported adverse events (CTCAEv.4): Glossodynia [2, 4] | reported adverse events (CTCAEv.4): Laryngeal inflammation [2, 4] | reported adverse events (CTCAEv.4): Neutrophil count decreased [2, 4] | reported adverse events (CTCAEv.4): Oral dysaesthesia [2, 4] | reported adverse events (CTCAEv.4): Oral dysesthesia [2, 4] | reported adverse events (CTCAEv.4): Oral pain [2, 4] | reported adverse events (CTCAEv.4): Platelet count decreased [2, 4] | reported adverse events (CTCAEv.4): Radiation skin injury [2, 4] | reported adverse events (CTCAEv.4): Salivary duct inflammation [2, 4] | reported adverse events (CTCAEv.4): Weight decreased [2, 4] | reported adverse events (CTCAEv.4): White blood cell count decreased [2, 4] | reported adverse events (CTCAEv.4): Anemia [2, 6] | reported adverse events (CTCAEv.4): Blood urea increased [2, 6] | reported adverse events (CTCAEv.4): Constipation [2, 6] | reported adverse events (CTCAEv.4): Decreased appetite [2, 6] | reported adverse events (CTCAEv.4): Dermatitis [2, 6] | reported adverse events (CTCAEv.4): Dry mouth [2, 6] | reported adverse events (CTCAEv.4): Dysgeusia [2, 6] | reported adverse events (CTCAEv.4): Dysphagia [2, 6] | reported adverse events (CTCAEv.4): Glossodynia [2, 6] | reported adverse events (CTCAEv.4): Laryngeal inflammation [2, 6] | reported adverse events (CTCAEv.4): Neutrophil count decreased [2, 6] | reported adverse events (CTCAEv.4): Oral candidiasis [2, 6] | reported adverse events (CTCAEv.4): Oral dysaesthesia [2, 6] | reported adverse events (CTCAEv.4): Oral dysesthesia [2, 6] | reported adverse events (CTCAEv.4): Platelet count decreased [2, 6] | reported adverse events (CTCAEv.4): Salivary duct inflammation [2, 6] | reported adverse events (CTCAEv.4): Weight decreased [2, 6] | reported adverse events (CTCAEv.4): White blood cell count decreased [2, 6] | reported adverse events (CTCAEv.4): Blood creatinine increased [2, 8] | reported adverse events (CTCAEv.4): Blood urea increased [2, 8] | reported adverse events (CTCAEv.4): Constipation [2, 8] | reported adverse events (CTCAEv.4): Dermatitis [2, 8] | reported adverse events (CTCAEv.4): Glossodynia [2, 8] | reported adverse events (CTCAEv.4): Laryngeal inflammation [2, 8] | reported adverse events (CTCAEv.4): Oral dysaesthesia [2, 8] | reported adverse events (CTCAEv.4): Oral dysesthesia [2, 8]
8.3%: SAE frequency: Anemia [2, 5] | SAE frequency: Atrial flutter [2, 5] | SAE frequency: Decreased appetite [2, 5] | SAE frequency: Dysgeusia [2, 5] | SAE frequency: Febrile neutropenia [2, 5] | SAE frequency: Hypertension [2, 5] | SAE frequency: Hypoacusis [2, 5] | SAE frequency: Hypokalemia [2, 5] | SAE frequency: Nausea [2, 5] | SAE frequency: Neutrophil count decreased [2, 5] | SAE frequency: Respiratory tract infection [2, 5] | SAE frequency: Vomiting [2, 5] | SAE frequency: Weight decreased [2, 5]
2 (18.2): reported adverse events (CTCAEv.4): Blood creatinine increased [2, 6] | reported adverse events (CTCAEv.4): Radiation skin injury [2, 6]
53.8%: SAE frequency: Lymphocyte count decreased [2, 9]
localized, mild, and transient: character of toxicity attributable specifically to RRx-001 ([2]; infusion)
16.7%: SAE frequency: Oropharyngeal pain [2, 5] | SAE frequency: White blood cell count decreased [2, 5]
7 days: increase in mean survival time [1, 3]
none were attributed to RRx-001: SAEs attributed to RRx-001 ([2]; PREVLAR)
